Assay results taken from patent US12391919B2, “Culture medium, coating matrix and method for maturing midbrain dopaminergic progenitor cells” (NUWACELL BIOTECHNOLOGIES CO., LTD., priority 2022, dated 2025).
Structures can show the parent of a compound that is named as a salt.

How the values were obtained:
Format in all cases: cell-based, human
[1] = system: imDAPs; experiment: qRT-PCR analysis of imDAP-specific markers in expanded imDAPs; conditions: Example 3; 3 μM CHIR99021 (vs 0, 1.25 μM) during expansion; 5 days; FIG. 1C
Procedure: • 1. Individualize and collect cells by either Accutase or TrypLE treatment. • 2. Wash cells with 1 ml PBS and pellet cells at 250×g for 15 sec. • 3. Remove supernatant, add ˜200 μl of 4% PFA, mix and fix for 10 min at RT. • 4. Pellet cells at 350×g for 5 min. • 5. Wash cells by 1 ml of FACS buffer and pellet cells at 350×g for 5 min. • 6. Remove supernatant, add 200 μl/tube of FACS buffer/0.1% TritonX, mix for 10 min at RT. • 7. Wash cells by 1 ml of FACS buffer and pellet cells at 350×g for 5 min. • 8. Remove supernatant, add 200 μl/tube of primary antibody diluted in FACS buffer, mix gently, and incubate for 30 min at RT. • 9. Wash cells by 1 ml of FACS buffer and pellet cells at 350×g for 5 min. • 10. Remove supernatant, and add 200 μl of secondary antibody diluted in FACS buffer, mix gently, and incubate for 30 min at RT. • 11. Wash cells by 1 ml of FACS buffer and pellet cells at 300×g for 5 min. • 12. Remove supernatant, add 200 μl of FACS buffer, and run samples on the flow cytometry. (2) qRT-PCR • 1. For qRT-PCR analysis of mRNA gene expression, RNA should be harvested from at least 2×10^6 cells. • 2. […] Analyze the samples by running a quantitative PCR on the LightCycler 480 instrument using a 40× cycle two-step protocol with a 60° C., 60 sec annealing/elongation step and a 95° C., 30 sec denaturation step. […]

[2] = system: imDAPs; experiment: Flow cytometry (FACS) analysis of FOXA2 expression in expanded imDAPs; conditions: Example 6
Procedure: • 1. Individualize and collect cells by either Accutase or TrypLE treatment. • 2. Wash cells with 1 ml PBS and pellet cells at 250×g for 15 sec. • 3. Remove supernatant, add ˜200 μl of 4% PFA, mix and fix for 10 min at RT. • 4. Pellet cells at 350×g for 5 min. • 5. Wash cells by 1 ml of FACS buffer and pellet cells at 350×g for 5 min. • 6. Remove supernatant, add 200 μl/tube of FACS buffer/0.1% TritonX, mix for 10 min at RT. • 7. Wash cells by 1 ml of FACS buffer and pellet cells at 350×g for 5 min. • 8. Remove supernatant, add 200 μl/tube of primary antibody diluted in FACS buffer, mix gently, and incubate for 30 min at RT. • 9. Wash cells by 1 ml of FACS buffer and pellet cells at 350×g for 5 min. • 10. Remove supernatant, and add 200 μl of secondary antibody diluted in FACS buffer, mix gently, and incubate for 30 min at RT. • 11. Wash cells by 1 ml of FACS buffer and pellet cells at 300×g for 5 min. • 12. Remove supernatant, add 200 μl of FACS buffer, and run samples on the flow cytometry. (2) qRT-PCR • 1. For qRT-PCR analysis of mRNA gene expression, RNA should be harvested from at least 2×10^6 cells. • 2. Harvest cells, add 350 μl of buffer RLT+1% (vol/vol) s-mercaptoethanol to the well, transfer the lysate to a 1.5 ml tube, and put it immediately on ice. • 3. Perform RNA extraction using the Tiangen Kit (DP430), and follow the manufacturer's protocol ‘Purification of total RNA from animal and human cells’. • 4. When the RNA extraction was completed, determine the RNA concentration using a Nanodrop instrument. • 5. Perform the first-strand cDNA synthesis reaction with 1 μg of RNA using the HiScript TM II Q RT SuperMIX for qPCR(+gDNA wiper) Kit (Vazyme, #R223-01) for RT-qPCR. Follow the manufacturer's ‘First-Strand cDNA Synthesis’ protocol. This reaction would yield a 20 μl product. • 6. Dilute the 10 μl cDNA product in 80 μl of nuclease-free water. • 7. Pipette the diluted cDNA product (1 μl), Sybr green master mix (5 μl, Transgen, #AQ131) and 0.95 μM reverse/forward primer mix (4 μl) into a 384-well PCR plate in triplicate, either manually or using an automated pipetting robot. The complete primer panel included the target genes and the housekeeping gene (RPL13A). In the analysis, also included a sample of undifferentiated hPSCs to determine the gene expression levels relative to the expression in hPSCs. • 8. Analyze the samples by running a quantitative PCR on the LightCycler 480 instrument using a 40× cycle two-step protocol with a 60° C., 60 sec annealing/elongation step and a 95° C., 30 sec denaturation step. The average CT values from the three technical replicates were used for calculations of relative gene expression using the ΔΔCT method. For each gene, calculate the FC of the differentiated samples relative to the undifferentiated control sample using the housekeeping gene for normalization. Next, calculate the average of the FC values on the basis of the housekeeping gene. (3) Immunocytochemical Analysis • 1. Cell fixation: Remove the medium from the cells and wash with PBS. Add 4% (wt/vol) PFA (e.g., 200 μl to a well in a 48-well plate) and incubate at room temperature (RT) for 15 min. after incubation, wash the cells three times in PBS. • 2. Blocking: Remove PBS from the wells and add blocking solution to the cells, add enough volume to cover the cells. Leave the cells in blocking solution for 1 h at RT. • 3. Primary antibodies incubation: Remove the blocking solution from the cells and add the primary antibody solutions (˜100 μl/cm^2). […]

[3] = system: imDAPs; experiment: imDAP maturation: cell morphology, adhesion and cell yield; conditions: Example 13; maturation media supplemented with 10 μM Y27632; day 7; FIG. 8A
Procedure: imDAPs were produced according to the method described in CN201910169525.0, and expanded as described in Example 10. […] MM-H used in Example 11 contained the following components: Neurobasal™ medium, 1% (v/v) Glutamax, 0.5 mM Db-cAMP sodium salt, 200 μM ascorbic acid, 20 ng/ml BDNF, 20 ng/ml GDNF, 1 ng/ml TGF-β3, 10 μM DAPT, HhPLT (0.5%, 1%, 2%). MM-B used in Example 11 contained the following components: Neurobasal, 1% (v/v) Glutamax, 0.5 mM Db-cAMP sodium salt, 200 μM ascorbic acid, 20 ng/ml BDNF, 20 ng/ml GDNF, 1 ng/ml TGF-β3, 10 μM DAPT, 2% (v/v) B27 (50×) (as control). The above HhPLT was produced from hPLT as follows. The hPLT was centrifuged at 3000 g for 30 min at 4° C. to obtain the supernatant, which was heated to 56° C. for 30 min. The suspension was finally cooled down to 4° C. at least 5 min, and spun at 3000 g for 30 min at 4° C. to obtain the HhPLT supernatant. Aliquots were prepared and stored at −80° C. until use. The above Medium was changed every 3rd day. On day 7, the imDAPs at early maturation stage were dissociated enzymatically with 1× TrypLE, centrifuged at 250 g for 5 minutes.
imDAPs were produced according to the method described in CN201910169525.0, and expanded as described in Example 10. […] Medium was changed every 3rd day. On day 7, the imDAPs at early maturation stage were dissociated enzymatically with 1× TrypLE, centrifuged at 250 g for 5 minutes. Cells were collected for RT-qPCR analysis of EN1, LMX1A, FOXA2, NURR1, SOX6 and TH gene expression. The maturation medium used in Example 12 contained the following components: Neurobasal™ medium, 1% (v/v) Glutamax, 1% (v/v) HhPLT, 0.5 mM Db-cAMP sodium salt, 200 μM ascorbic acid, 20 ng/mL BDNF, 20 ng/mL GDNF, 1 ng/mL TGF-β3, 10 μM DAPT.
imDAPs were produced according to the method described in CN201910169525.0, and expanded as described in Example 10. […] Cells were collected and counted by Vi-cell cytometer. The cells were analyzed by RT-qPCR for EN1, LMX1A, FOXA2, NURR1, SOX6 and TH gene expression. […]

Structure (SMILES)	mDAP marker expression (EN1, LMX1A, FOXA2) [1]	percentage of Foxa2-expressing cells ([2]; 10 μM Y27632 vs 5 μM Blebbistatin, VTN-coated, Day 6, FIG. 2)	percentage of Foxa2-expressing cells during passages ([2]; medium with Y27632)	cell adhesion and growth [3]
Cc1cnc(-c2cnc(NCCNc3ccc(C#N)cn3)nc2-c2ccc(Cl)cc2Cl)[nH]1 [CHIR99021]	allowed better maintenance of mDAP marker expression			
C[C@@H](N)[C@H]1CC[C@H](C(=O)Nc2ccncc2)CC1 [Y27632, (R)-(+)-trans-4-(1-aminoethyl)-N-(4-pyridyl) cyclohexanecarboxamide dihydrochloride]		capable of improving the percentage of Foxa2-expressing cells than Blebbistatin	still decreased during passages	could promote cell adhesion at a certain degree
